# In patent publication US9290535B2, “Uridine-based gadolinium complex and MRI contrast agent including the same” (Korea University Researchand Business Foundation, priority 2011, dated 2016):
# Values joined by “and” are separate entries in the source; they are usually repeats but may differ in a detail not shown here. Equal entries are not always repeated.
# Key:
# [1] = biological target: T1, human serum albumin (HSA) (Homo sapiens, UniProt P02768); experiment: Interaction with human serum albumin (relaxivity with HSA, binding constant); conditions: 36° C.; for Relaxivity r1^a (with HSA): PBS solution with 0.65 mM HSA; for Effective interaction with HSA (R1/R1^0): 50 μM complex, HSA below 1.0 mM
# T1 construct: purchased Sigma (Bornem, Belgium) A3782
# T1 sequence (P02768 25-609): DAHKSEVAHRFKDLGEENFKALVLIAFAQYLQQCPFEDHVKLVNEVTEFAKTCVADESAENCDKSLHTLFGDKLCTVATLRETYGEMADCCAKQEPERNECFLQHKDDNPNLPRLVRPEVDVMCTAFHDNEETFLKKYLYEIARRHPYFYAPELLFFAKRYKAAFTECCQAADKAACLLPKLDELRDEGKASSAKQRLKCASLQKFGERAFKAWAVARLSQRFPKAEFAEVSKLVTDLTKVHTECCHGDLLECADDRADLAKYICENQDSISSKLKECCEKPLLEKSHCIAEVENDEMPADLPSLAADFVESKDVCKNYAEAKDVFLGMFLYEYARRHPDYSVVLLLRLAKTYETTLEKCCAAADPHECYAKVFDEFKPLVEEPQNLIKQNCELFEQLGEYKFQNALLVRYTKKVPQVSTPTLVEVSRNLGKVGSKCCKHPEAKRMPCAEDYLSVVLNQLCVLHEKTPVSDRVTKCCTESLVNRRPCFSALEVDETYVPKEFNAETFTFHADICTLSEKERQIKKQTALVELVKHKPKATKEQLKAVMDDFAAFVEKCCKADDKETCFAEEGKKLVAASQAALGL
# Description: It is well known that non-covalent interaction of the contrast agent with human serum albumin (HSA) increases its circulation time in blood and slows down tubling rate, leading to greater contrast enhancement for blood vessel imaging. In this example, effective interaction between the newly synthesized contrast agents (CAs) and human serum albumin (HSA) were investigated.
# Human serum albumin (HSA; Product No. A3782) was purchased from Sigma (Bornem, Belgium) and was used without further purification. HSA binding experiment was performed with 50 μM of the complexes LGd1-5 in PBS solution depending on the concentration of HSA from 0 to 4 mM at 20 MHz and 36° C.
# The increment of R1/R1^0 with increasing aliphatic chain length is: LGd2>LGd3>LGd4>LGd5.
# Furthermore, to know the non-covalent binding strength between HSA and the complex, a binding constant (Ka) of (3.34±0.28)×10^3 M^−1 for the complex LGd3 was determined using the theoretical equation reported in the reference (D. T. Schuhle, J. Schatz, S. Laurent, L. V. Elst, R. N. Muller, M. C. A. Stuart, J. A. Peters, Chem. Eur. J. 2009, 15, 3290). The relaxivity for the non-aggregate form of LGd3 (r1^f) was measured to be 18.5 mM^−1s^−1 (below CMC=50 μM; FIG. 10), while for adduct LGd3.HSA (r1^c), 41.0 mM^−1s^−1 at 36° C. and 20 MHz (0.47 T) in PBS solution. […] As a result, the complex LGd3 of the present invention could be retained in vivo for a longer time.
# [2] = pH dependence of water 1H relaxivity; format: physicochemical
# Procedure: The relaxivities of the non-aggregated complex LGd1 and the most aggregated complex LGd3 (FIG. 7, average diameter […]) were investigated at various pH values (3.5-11) at 60 MHz (1.41 T) and 36° C.
# The pH dependence of water ^1H-NMR relaxivity r1 was obtained at 60 MHz and 36° C. The complexes LGd1 and LGd3 were dissolved in previously prepared stock solutions (StockOptions pH Screen, Hampton Research, USA) at pH 3.5-11.
# [3] = Stability against transmetallation by Zn2+ (time evolution of proton relaxation rate); format: physicochemical; conditions: for Relaxivity retained after transmetallation: 2.5 mM complex with 2.5 mM ZnCl2 in PBS, after 70 h; for y0 of fit y0+A×exp(−t/C1) of proton relaxation rate during transmetallation: Zn(II) ions, PBS, 20 MHz (0.47 T), 36° C., steady state in about 70 h
# Procedure: The stability of the gadolinium complex against various biologically active metal ions is very important in in vivo applications. Among them, only Zn^2+ can displace significant amounts of the Gd^3+ ion as concentration of Zn^2+ in blood is relatively high (55-125 μM/L). The stability of the complexes LGd1-4 against transmetallation by Zn^2+ was studied employing the method of others.
# The time evolution of the ^1H longitudinal relaxivity (R1) of a 2.5 mM gadolinium complex with 2.5 mM ZnCl2 in PBS solution was measured. Stability of the amphiphilic complex LGd2 of the present invention was greater than that of the non-aggregated complex LGd1 (FIG. 13). After 70 h, the relaxivities were retained 30, 50, 21, and 12% for LGd1-4, respectively.
# [4] = Relaxivity measurements (r1, r2) in PBS solution; format: physicochemical; conditions: for Relaxivity r1: PBS solution, 36° C.
# Procedure: The relaxation efficiency of the newly synthesized amphiphilic MRI contrast agents according to the present invention was determined by measuring longitudinal relaxivity (r1) and transverse relaxivity (r2) at 20 MHZ (0.47 T) and 60 MHz (1.41 T) in phosphate buffered saline (PBS) solution at 36° C.
# [5] = Dynamic light scattering (DLS) of micelles; format: physicochemical; conditions: for DLS PDI of micelles / DLS average size of micelles: FIGS. 6 to 9; for DLS average size of micelles: pH 7.4
# [6] = Contrast-enhanced dynamic MRI in mice (CNR in liver and blood); format: in vivo, Balb/C mice
# Procedure: The whole-body pharmacokinetics of T1 contrast agents can be measured by dynamic 2D or 3D MR imaging.
# 5-Week-old male Balb/C mice (n=3; OrientBio, Korea) were used for contrast-enhanced dynamic MRI. MRI was performed by using a 4.7 T MRI system (BioSpec 47/40; Bruker, Germany) with a quadrature birdcage RF coil (35 mm inner diameter) for signal transmission and reception.
# Bolus of the contrast agents (0.1 mmol Gd/kg) was injected via tail vein. During MRI acquisition, the animals were anesthetized using 1-1.25% of inhalational isoflurane with O2:N2O (3:7) mixture.
# To quantitatively measure signal intensity in region-of-interests (ROIs) as contrast-noise ratio (CNR), a reference of water sample (1 g/l CuSO4 in 8:2 of D2O:H2O) in a cylindrical tube (5 mm diameter) was used.
# Dynamic 2D T1-weighted images were acquired using a spin-echo (SE) pulse sequence with the following parameters: TE/TR=10/400 ms, number of average=4, matrix size=256×256, slice thickness=1 mm, field of view=30×30 mm^2 (in axial slice) or 50×30 mm^2 (in coronal slice), and scan time=6 min 50 s).
# Dynamic 3D T1-weighted images were acquired using a fast low angle shot gradient echo (FLASH) pulse sequence with parameters of TE/TR=2.4/7.5 ms, number of average=4, flip angle=30°, field of view=30×30×20 mm^3, matrix size=256×256×128, and scan time=12 min 17 s.
# [7] = Critical micelle concentration from 1/T1 versus concentration; format: physicochemical; conditions: FIG. 10
# Procedure: Longitudinal and transverse relaxivities, r1 and r2, were measured at 20 MHz (0.47 T) and 60 MHz (1.41 T) at 36° C. on NMR (mq20 and mq60, Bruker, Germany) and animal MRI (Biospec 47/40, Bruker, Germany) systems. T1 and T2 relaxation times were measured with inversion recovery and spin-echo pulse sequences, respectively. The critical micelle concentration (cmc) of the complex LGd3 was determined by measuring the proton relaxation rate 1/T1 as a function of complex LGd3 concentration.
# [8] = clinically used commercial T1 contrast agents, comparison values; cited from earlier work
# [9] = clinical liver-specific contrast agents; cited from earlier work
smiles,measurement,setting,value
O=C([O-])CN(CCN(CCN(CC(=O)[O-])CC(=O)[O-])C[C@H]1O[C@@H](n2ccc(=O)[nH]c2=O)[C@H](O)[C@@H]1O)CC(=O)[O-].[Gd+3] [LGd1],Relaxivity r1^a (with HSA),[1]; 20 MHz (0.47 T),5.62 mM⁻¹ s⁻¹
same,Relaxivity over the given pH range,"[2]; pH 3.5-11, 60 MHz (1.41 T), 36° C.",5.0±0.1 mM^−1s^−1 and 5.0±0.6 mM^−1s^−1
same,Decrease of relaxivity at alkaline pH,"[2]; pH 11, 60 MHz, 36° C.",about 10%
same,Relaxivity retained after transmetallation,[3],30%
same,y0 of fit y0+A×exp(−t/C1) of proton relaxation rate during transmetallation,[3],0.30
same,Relaxivity r1,[4]; 20 MHz (0.47 T),5.10 mM⁻¹ s⁻¹
same,Relaxivity r1,[4]; 60 MHz (1.41 T),4.17 mM⁻¹ s⁻¹
CCCCCCCC(=O)O[C@@H]1[C@H](OC(=O)CCCCCCC)[C@@H](CN(CCN(CC(=O)[O-])CC(=O)[O-])CCN(CC(=O)[O-])CC(=O)[O-])O[C@H]1n1ccc(=O)[nH]c1=O.[Gd+3] [LGd2],Effective interaction with HSA (R1/R1^0),[1]; 20 MHz,high
same,Relaxivity r1^a (with HSA),[1]; 20 MHz (0.47 T),31.90 mM⁻¹ s⁻¹
same,Relaxivity retained after transmetallation,[3],50%
same,y0 of fit y0+A×exp(−t/C1) of proton relaxation rate during transmetallation,[3],0.50
same,Relaxivity r1,[4]; 20 MHz (0.47 T),14.70 mM⁻¹ s⁻¹
same,Relaxivity r1,[4]; 60 MHz (1.41 T),12.40 mM⁻¹ s⁻¹
same,DLS PDI of micelles,[5],0.986
same,DLS average size of micelles,[5],6.78 nm
CCCCCCCCCC(=O)O[C@@H]1[C@H](OC(=O)CCCCCCCCC)[C@@H](CN(CCN(CC(=O)[O-])CC(=O)[O-])CCN(CC(=O)[O-])CC(=O)[O-])O[C@H]1n1ccc(=O)[nH]c1=O.[Gd+3] [LGd3],Duration of hyperintense CNR in liver (delayed hepatobiliary phase),[6]; 0.1 mmol Gd/kg i.v.,at least 11 h
same,Time of bright contrast enhancement in gall bladder after injection,"[6]; 0.1 mmol Gd/kg i.v., 2D MR images",2 to 4 h
same,Peak and plateau enhancement in liver parenchyma,"[6]; 0.1 mmol Gd/kg i.v., CNR in liver from 1.67 to 4.0",about 240%
same,Liver parenchyma enhancement versus same dose of Gd-DTPA-BMA,"[6]; 0.1 mmol Gd/kg, 3D dynamic images",more intense and prolonged enhancement
same,CNR in liver at 11 h above pre-value,"[6]; 0.1 mmol Gd/kg, 11 h after injection",about 60%
same,"T1-contrasted enhancement in liver parenchyma, caudal vena cava and kidney","[6]; 30 min after injection, 0.1 mmol Gd/kg",markedly seen
same,SI in liver compared with pre-injection value,[6]; 9 h after injection,still relatively high
same,Duration of plateau-like constant CNR in liver,[6]; after maximum at about 2 h post-injection,about 2 h
same,Peak CNR in liver,"[6]; i.v. injection, 4.7 T",4.0
same,Effective interaction with HSA (R1/R1^0),[1]; 20 MHz,high
same,Relaxivity r1^a (with HSA),[1]; 20 MHz (0.47 T),41.0 mM⁻¹ s⁻¹ and 41.00 mM⁻¹ s⁻¹
same,Relaxivity of adduct with HSA (r1^c),"[1]; adduct LGd3.HSA, 20 MHz (0.47 T), PBS",41.0 mM⁻¹ s⁻¹
same,Relaxivity of the non-aggregate form (r1^f),"[1]; below CMC, 20 MHz (0.47 T), PBS",18.5 mM⁻¹ s⁻¹
same,Binding constant (Ka) with HSA,"[1]; non-covalent binding, theoretical equation, 20 MHz, PBS",(3.34±0.28)×10^3 M^−1
same,Relaxivity variation Δr1 between pH 6 and 7.5,"[2]; 60 MHz, 36° C.",~2.9
same,Relaxivity variation Δr1 from pH 8 to pH 11,"[2]; 60 MHz, 36° C.",~10.3
same,Relaxivity at pH 8,"[2]; pH 8, 60 MHz (1.41 T), 36° C.",about 24.5 mM^−1s^−1
same,Relaxivity at pH 10.5,[2]; pH 10.5,about 17.3 mM^−1s^−1
same,Relaxivity at pH 11,"[2]; pH 11, 60 MHz (1.41 T), 36° C.",14.2 mM^−1s^−1
same,Relaxivity retained after transmetallation,[3],21%
same,y0 of fit y0+A×exp(−t/C1) of proton relaxation rate during transmetallation,[3],0.21
same,Relaxivity r1,[4]; 20 MHz (0.47 T),30.3 mM⁻¹ s⁻¹ and 30.30 mM⁻¹ s⁻¹
same,Relaxivity r1,[4]; 60 MHz (1.41 T),23.4 mM⁻¹ s⁻¹ and 23.40 mM⁻¹ s⁻¹
same,"Relaxivity increase compared to Magnevist/Omniscan (Gd-DTPA, Gd-DTPA-BMA)","[4]; PBS, 0.47 T and 1.41 T",6 fold
same,Average diameter (FIG. 7) as printed in nm,[5]; FIG. 7,51.2 nm
same,DLS PDI of micelles at alkaline pH,"[5]; FIG. 12, pH 10.5",2.01
same,DLS PDI of micelles,[5],1.46
same,DLS average size of micelles,[5],51.16 nm and 51.15 nm
same,Critical micelle concentration (CMC),"[7]; 20 MHz, 36° C.",about 0.05 mM
same,Critical micelle concentration (CMC),[7],50 µM
CCCCCCCCCCCC(=O)O[C@@H]1[C@H](OC(=O)CCCCCCCCCCC)[C@@H](CN(CCN(CC(=O)[O-])CC(=O)[O-])CCN(CC(=O)[O-])CC(=O)[O-])O[C@H]1n1ccc(=O)[nH]c1=O.[Gd+3] [LGd4],Relaxivity r1^a (with HSA),[1]; 20 MHz (0.47 T),38.50 mM⁻¹ s⁻¹
same,Relaxivity retained after transmetallation,[3],12%
same,y0 of fit y0+A×exp(−t/C1) of proton relaxation rate during transmetallation,[3],0.12
same,Relaxivity r1,[4]; 20 MHz (0.47 T),27.10 mM⁻¹ s⁻¹
same,Relaxivity r1,[4]; 60 MHz (1.41 T),16.50 mM⁻¹ s⁻¹
same,DLS PDI of micelles,[5],1.12
same,DLS average size of micelles,[5],50.16 nm
CCCCCCCCCCCCCC(=O)O[C@@H]1[C@H](OC(=O)CCCCCCCCCCCCC)[C@@H](CN(CCN(CC(=O)[O-])CC(=O)[O-])CCN(CC(=O)[O-])CC(=O)[O-])O[C@H]1n1ccc(=O)[nH]c1=O.[Gd+3] [LGd5],Relaxivity r1^a (with HSA),[1]; 20 MHz (0.47 T),26.40 mM⁻¹ s⁻¹
same,Relaxivity r1,[4]; 20 MHz (0.47 T),20.10 mM⁻¹ s⁻¹
same,Relaxivity r1,[4]; 60 MHz (1.41 T),17.20 mM⁻¹ s⁻¹
same,DLS PDI of micelles,[5],1.14
same,DLS average size of micelles,[5],24.74 nm
"CNC[C@H](O)[C@@H](O)[C@H](O)[C@H](O)CO.CNC[C@H](O)[C@@H](O)[C@H](O)[C@H](O)CO.O=C([O-])CN(CCN(CC(=O)[O-])CC(=O)O)CCN(CC(=O)[O-])CC(=O)O.[Gd+3] [Magnevist ®, Gd-DTPA, reference compound]",Relaxivity r1,[4]; 20 MHz (0.47 T),4.70 mM⁻¹ s⁻¹
same,Relaxivity r1,[4]; 60 MHz (1.41 T),3.81 mM⁻¹ s⁻¹
same,Relaxivity retained after transmetallation (commercial contrast agents),[8],50%
"CNC[C@H](O)[C@@H](O)[C@H](O)[C@H](O)CO.CNC[C@H](O)[C@@H](O)[C@H](O)[C@H](O)CO.O=C([O-])CN(CCN(CC(=O)[O-])CC(=O)O)CCN(CC(=O)O)C(COCc1ccccc1)C(=O)[O-].[Gd+3] (stereo not drawn) [Multihance®, Gd-BOPTA]",Hepatic excretion,[9],4%
same,Renal excretion,[9],96%
"CCOc1ccc(CC(CN(CCN(CC(=O)[O-])CC(=O)[O-])CC(=O)[O-])N(CC(=O)[O-])CC(=O)[O-])cc1.[Gd+3].[Na+].[Na+] (stereo not drawn) [Primovist®, Gd-EOB-DTPA]",Hepatic excretion,[9],50%
same,Renal excretion,[9],50%
"O=C([O-])CN(CCN(CC(=O)[O-])CC(COP(=O)([O-])OC1CCC(c2ccccc2)(c2ccccc2)CC1)N(CC(=O)[O-])CC(=O)[O-])CC(=O)[O-].[Gd+3].[Na+].[Na+].[Na+] (stereo not drawn) [Vasovist®, diphenylcyclohexyl phosphodiester-Gd-DTPA]",Hepatic excretion,[9],8%
same,Renal excretion,[9],91%
